Among the data in patent US20200385371A1 (Propellon Therapeutics Inc., priority 2017, published 2020) are EC50, IC50 and Kd values, retold here.

For assay [1], the system named is MV4-11 cells. As to the kind of experiment: Cell proliferation assay (ATPlite). It is filed as cell-based. Conditions: Homo sapiens, 120 h; MV4-11 cells, five days; read-out: GI MV411 EC50. The method in brief:
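Cells seeded at 1,000/well in Alpha-MEM with 10% FBS, treated with compound over a 10-point range (top 10 μM) or DMSO. Grown five days at 37° C, 5% CO2; viability by ATPlite luminescence.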
(In general: Cellular ATP, detected with luciferase, serves as a proxy for viable cell number.)

In assay [2] the target is T1, WDR5 (Homo sapiens, UniProt P61964). As to the kind of experiment: Fluorescence Polarization (FP) binding assay. The method in brief:
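Displacement of fluorescein-labelled H3 (1-15) (30 nM, with 0.3 μM WDR5) or 9-Ala-FAM (20 nM, with 0.05 μM WDR5) in 80 mM sodium phosphate pH 6.5, 20 mM KCl, 0.008% Triton X-100. FP read at 485/528 nm (H3) or 480/540 nm (9-Ala-FAM); Kdisp from hyperbolic fit, mean of quadruplicates.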
A general note: Fluorescence polarisation rises when a labelled molecule tumbles more slowly, as on binding a larger partner.

Assay [3] has as its target T1, WDR5. The assay can be described thus: Surface Plasmon Resonance (SPR) assay. It is filed as binding. More on the design: Full length WDR5 with an N-terminal His tag and C-terminal AviTag; His tag (N); made in house; host or cells: E. coli. The settings on record: read-out: SPR Kd. In a few lines:
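Full-length biotinylated WDR5 (N-His, C-AviTag, E. coli) captured (~3000 RU) on streptavidin SA chip; Biacore T200. HBS-EP pH 7.4 plus 5% DMSO running buffer, 40 μl/min.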

In the case of `C[C@H]1CN(c2cc(F)c(C3=CCCN(c4ncc(C#N)s4)C3)c(F)c2NC(=O)c2c[nH]c(=O)cc2C(F)F)CCN1C` [Example 99, (S)—N-(3-(1-(5-cyanothiazol-2-yl)-1,2,5,6-tetrahydropyridin-3-yl)-6-(3,4-dimethylpiperazin-1-yl)-2,4-difluorophenyl)-4-(difluoromethyl)-6-oxo-1,6-dihydropyridine-3-carboxamide], the EC50 – broadly, the concentration giving half of the maximal effect – in assay [1] came to 169 nM. Further, the IC50 – broadly, the concentration that gives 50% inhibition – in assay [2] was found to be 14.7 nM. Further, in assay [3], the Kd (in general, the equilibrium constant for the complex coming apart) came to 1.62 nM.
For `C[C@H]1CN(c2cc(F)c(C3=CCCN(c4ncc(C#N)s4)C3)c(F)c2NC(=O)c2c[nH]c(=O)cc2C(F)(F)F)CCN1C` [Example 100, (S)—N-(3-(1-(5-cyanothiazol-2-yl)-1,2,5,6-tetrahydropyridin-3-yl)-6-(3,4-dimethylpiperazin-1-yl)-2,4-difluorophenyl)-6-oxo-4-(trifluoromethyl)-1,6-dihydropyridine-3-carboxamide], in that order: 181 nM, 11.9 nM and 1.45 nM.
The matching figures for `C[C@@H]1CN(c2cc(F)c(-c3cnc(N4CCO[C@@H](C)C4)nc3)c(F)c2NC(=O)c2c[nH]c(=O)cc2C(F)(F)F)C[C@H](C)N1C` [Example 101, N-(2,4-difluoro-3-(2-((S)-2-methylmorpholino)pyrimidin-5-yl)-6-((3S,5R)-3,4,5-trimethylpiperazin-1-yl)phenyl)-6-oxo-4-(trifluoromethyl)-1,6-dihydropyridine-3-carboxamide]: 11.8 nM, 21 nM and 6.17 nM.
`CC(C)[C@H]1CN(c2ncc(-c3c(F)cc(N4CCN(C)[C@@H](C)C4)c(NC(=O)c4c[nH]c(=O)cc4C(F)(F)F)c3F)cn2)CCO1` [Example 102, N-(6-((S)-3,4-dimethylpiperazin-1-yl)-2,4-difluoro-3-(2-((S)-2-isopropylmorpholino)pyrimidin-5-yl)phenyl)-6-oxo-4-(trifluoromethyl)-1,6-dihydropyridine-3-carboxamide]: the EC50 in assay [1] was found to be 14.3 nM. Moreover, the IC50 in assay [2] came out at 11.7 nM. In addition, the Kd in assay [3] was 0.44 nM.
The matching figures for `CC(C)[C@H]1CN(c2ncc(-c3c(F)cc(N4C[C@@H](C)N(C)[C@@H](C)C4)c(NC(=O)c4c[nH]c(=O)cc4C(F)(F)F)c3F)cn2)CCO1` [Example 103, N-(2,4-difluoro-3-(2-((S)-2-isopropylmorpholino)pyrimidin-5-yl)-6-((3S,5R)-3,4,5-trimethylpiperazin-1-yl)phenyl)-6-oxo-4-(trifluoromethyl)-1,6-dihydropyridine-3-carboxamide]: 14.7 nM, 17.7 nM and 5.01 nM.
For `CC(C)[C@@H]1CN(c2ncc(-c3c(F)cc(N4CCN(C)[C@@H](C)C4)c(NC(=O)c4c[nH]c(=O)cc4C(F)(F)F)c3F)cn2)CCO1` [Example 104, N-(6-((S)-3,4-dimethylpiperazin-1-yl)-2,4-difluoro-3-(2-((R)-2-isopropylmorpholino)pyrimidin-5-yl)phenyl)-6-oxo-4-(trifluoromethyl)-1,6-dihydropyridine-3-carboxamide], in that order: 20.3 nM, 16.5 nM and 2.25 nM.
On to `CC(C)[C@@H]1CN(c2ncc(-c3c(F)cc(N4C[C@@H](C)N(C)[C@@H](C)C4)c(NC(=O)c4c[nH]c(=O)cc4C(F)(F)F)c3F)cn2)CCO1` [Example 105, N-(2,4-difluoro-3-(2-((R)-2-isopropylmorpholino)pyrimidin-5-yl)-6-((3S,5R)-3,4,5-trimethylpiperazin-1-yl)phenyl)-6-oxo-4-(trifluoromethyl)-1,6-dihydropyridine-3-carboxamide], for which the EC50 in assay [1] was 14.3 nM. Also, in assay [2], the IC50 amounted to 14.7 nM. Also, in assay [3], the Kd turned out to be 3.89 nM.
Take `C[C@H]1CN(c2cc(F)c(C3=CCN(c4ccnc(C#N)n4)C3)c(F)c2NC(=O)c2c[nH]c(=O)cc2C(F)F)CCN1C` [Example 106, (S)—N-(3-(1-(2-cyanopyrimidin-4-yl)-2,5-dihydro-1H-pyrrol-3-yl)-6-(3,4-dimethylpiperazin-1-yl)-2,4-difluorophenyl)-4-(difluoromethyl)-6-oxo-1,6-dihydropyridine-3-carboxamide]: the EC50 in assay [1] is 27.6 nM. In addition, in assay [2], the IC50 is 15 nM. In addition, the Kd in assay [3] came to 0.93 nM.
For `C[C@H]1CN(c2cc(F)c(C3=CCN(c4ccnc(C#N)n4)C3)c(F)c2NC(=O)c2c[nH]c(=O)cc2C(F)(F)F)CCN1C` [Example 107, (S)—N-(3-(1-(2-cyanopyrimidin-4-yl)-2,5-dihydro-1H-pyrrol-3-yl)-6-(3,4-dimethylpiperazin-1-yl)-2,4-difluorophenyl)-6-oxo-4-(trifluoromethyl)-1,6-dihydropyridine-3-carboxamide], in that order: 60.1 nM, 14.3 nM and 2.62 nM.
For `C[C@H]1CN(c2cc(F)c(C3=CCN(c4ccnc(C#N)n4)CC3)c(F)c2NC(=O)c2c[nH]c(=O)cc2C(F)F)CCN1C` [Example 108, (S)—N-(3-(1-(2-cyanopyrimidin-4-yl)-1,2,3,6-tetrahydropyridin-4-yl)-6-(3,4-dimethylpiperazin-1-yl)-2,4-difluorophenyl)-4-(difluoromethyl)-6-oxo-1,6-dihydropyridine-3-carboxamide], in that order: 29.9 nM, 14.2 nM and 1.65 nM.
For `C[C@@H]1CN(c2ncc(-c3c(F)cc(N4C[C@@H](C)N(C)[C@@H](C)C4)c(NC(=O)c4ccc(F)cc4C(F)F)c3F)cn2)C[C@H](C)O1` [Example 109, 2-(Difluoromethyl)-N-(3-(2-((2S,6R)-2,6-dimethylmorpholino)pyrimidin-5-yl)-2,4-difluoro-6-((3S,5R)-3,4,5-trimethylpiperazin-1-yl)phenyl)-4-fluorobenzamide Formic Acid], in that order: 7.34 nM, 14.4 nM and 2.59 nM.
As for `C[C@@H]1CN(c2ncc(-c3c(F)cc(N4CCN(C)[C@@H](C)C4)c(NC(=O)c4ccc(F)cc4C(F)F)c3F)cn2)C[C@H](C)O1` [Example 110, 2-(Difluoromethyl)-N-(3-(2-((2S,6R)-2,6-dimethylmorpholino)pyrimidin-5-yl)-6-((S)-3,4-dimethylpiperazin-1-yl)-2,4-difluorophenyl)-4-fluorobenzamide formic acid], the EC50 in assay [1] was determined as 33.2 nM. The IC50 in assay [2] is 10.9 nM. Also, the Kd in assay [3] stood at 1.94 nM.
For `C[C@@H]1CN(c2ncc(-c3c(F)cc(N4C[C@@H](C)N(C)[C@@H](C)C4)c(NC(=O)c4c[nH]c(=O)cc4C(F)F)c3F)cn2)C[C@H](C)O1` [Example 111, 4-(Difluoromethyl)-N-(3-(2-((2S,6R)-2,6-dimethylmorpholino)pyrimidin-5-yl)-2,4-difluoro-6-((3S,5R)-3,4,5-trimethylpiperazin-1-yl)phenyl)-6-oxo-1,6-dihydropyridine-3-carboxamide], in that order: 9.48 nM, 14.1 nM and 1.29 nM.
